# Measurements from US11291659B2, “P38 kinase inhibitors reduce DUX4 and downstream gene expression for the treatment of FSHD” (Fulcrum Therapeutics, Inc., priority 2017, dated 2022).
# How the values were obtained:
# [1] = test system: MBD3L2 mRNA (DUX4 downstream gene); assay: MBD3L2 mRNA expression by qPCR in FSHD myotubes; format: cell-based, Human
# Experimental: Cell Plating: Performed three days prior to treatment, 10000 cells were plated per well on gelatinized 96-well plates, or 100000 cells on gelatinized 6-well plates.
# (§1) For ASO or compound treatments cells were plate into 100 μL of Promocell growth medium containing ASO or compounds at the described concentrations.
# (§2) On day 0, change to differentiation media. Remove plates from the incubator and aspirate the growth medium, Wash once with PBS, 100 μL for 96-wells and 1 mL for a 6-well plate, Add 100 μL or 2 mL of differentiation medium per well, 96- or 6-well respectively. Add antisense oligonucleotides or drug at the desire concentration and put back in the incubator. Fusion should start within day 1-2. Incubate for 3-4 days.
# (§3) Cells were removed from the incubator and media aspirated. Quickly lysed following one of the following protocols: For lysis in 96-well plates direct lysis and one-step RT-Preamp qPCR protocol described below. For each 96-well prepare a mix containing: 19.5 μL Roche Realtime Ready lysis buffer, 0.25 μL RNAse inhibitor, 0.25 μL DNAseI (from Thermo not the included one in the kit). 20 μL of the mix was added to each well, mix 5 times and incubated 5 minutes at RT or alternatively shaken vigorously for 15 minutes. Lysis was observed under the microscope. Samples were frozen −80° C. at least for 15 minutes,
# (§4) For qPCR, dilute 1:10 and use 2 μL for a 10 μL 1-step RT-qPCR reaction. For detection of GAPDH, RPLP0, TBP, MYOG, FRG1, MYH3, ACTN2, etc.). Per 10 μL reaction: RNA (1:10 dilution lysate) 2 μL, Fast Advanced Taqman Master Mix (2×) 5 μL, RT enzyme mix (40×) 0.25 μL, Taqman probe set (20×) 0.5 μL, H2O 2.25 μL. The following reaction protocol was run on the QuantStudio 7: 48° C. for 15 min, 50° C. for 2 min, 95° C. for 30 sec, 40×, 95° C. for 5 sec, 60° C. for 30 sec, then plates were read as specified by the manufacturer (Thermo). For 1-step RT-Preamplification used for detection of DUX4 downstream genes, i.e. MBD3L2, ZSCAN4, LEUTX, TRIM43, KHDC1L. POL2RA-VIC was used as Endogenous control). Per 10 μL reaction: RNA (1:10 dilution lysate) 2.25 μL, Taqman Pre-Amp Master Mix (2×) 5 μL, RT enzyme mix (40×) 0.25 μL, Taqman probe set (0.2×)*2.5 μL, * Pooling the TaqMan Assays: equal volumes of each 20× TaqMan® Gene Expression Assay, up to 100 assays were combined. For example, to pool 50 TaqMan assays, 10 μL of each assay were combined in a microcentrifuge tube. The pooled TaqMan assays were diluted using 1×TE buffer so that each assay is at a final concentration of 0.2×. For the above example, add 500 μL of 1×TE buffer to the pooled TaqMan assays for a total final volume of 1 mL. The QuantStudio7 protocol was used 48° C. 15 min, 95° C. 10 min, 10 cycles: 95° C. 15 sec, 60° C. 4 min, 4° C. infinite. Samples were then diluted to 50 μL and continue with the qPCR step. Per 10 μL reaction: Preamp dilution 2 μL, Fast Advanced Taqman Master Mix (2×) 5 μL, Taqman probe set (20×) 0.5 μL, H2O 2.5 μL. When multiplexing the volume was adjusted to 10 μL total). The following program was run on the QuantStudio7: 50° C. for 2 min, 95° C. for 30 sec, 40×, 95° C. for 5 sec, 60° C. for 30 sec, plates were read as per the manufacturers specifications (Thermo).
# (§5) After treatment, the control and treated cells were processed for realtime PCR quantification of MBD3L2 mRNA (DUX4 downstream gene) and myogenin (MYOG) mRNA (control) expression.
# [2] = test system: myogenin (MYOG) mRNA; assay: Myogenin (MYOG) mRNA expression by qPCR in FSHD myotubes (control gene); format: cell-based, Human
# Experimental: as §1, §2, §3
# as §4, with “For the above example, add 500 μL of 1×TE buffer to the pooled TaqMan assays for a total final volume of 1 mL. The QuantStudio7 protocol was used 48° C. 15 min, 95° C. 10 min, 10 cycles: 95° C. 15 sec, 60° C. 4 min, 4° C. infinite. Samples were then diluted to 50 μL and continue with the qPCR step. Per 10 μL reaction: Preamp dilution 2 μL, Fast Advanced Taqman Master Mix (2×) 5 μL, Taqman probe set (20×) 0.5 μL, H2O 2.5 μL. When multiplexing the volume was adjusted to 10 μL total).” left out
# as §5
smiles,measurement,setting,value
"Cn1c(=O)c(Oc2ccc(F)cc2F)cc2cnc(NC(CCO)CCO)nc21 [Pamapimod, 6-(2,4-difluorophenoxy)-2-((1,5-dihydroxypentan-3-yl)amino)-8-methylpyrido[2,3-d]pyrimidin-7(8H)-one]",MBD3L2 mRNA expression,"[1]; FSHD1 and FSHD2 primary patient myoblast lines, 1 μM",reduction of MBD3L2
same,MBD3L2 downstream gene mRNA levels normalized to POLR2A mRNA,"[1]; FSHD myotubes, 10, 100, and 1000 nM vs DMSO",dose-dependently reduced
same,IC50,"[1]; Homo sapiens, Myotube, read-out: IC50, reduction of MBD3L2 mRNA expression, FSHD myotubes, realtime PCR",< 10 nM
same,MBD3L2 expression levels,"[1]; myotubes of four FSHD patient lines FTCE-016, -020, -197, -196, 1 μM",reduced in all of the FSHD lines
same,MYOG mRNA expression,[2],no impact
